pIC50: −log10 of the molar value.
Legend:
[1] = system: HCV replicon RNA (GenBank Accession No. AJ242654); assay: HCV Replicon Assay (replicon RNA reduction and/or Fluc reporter signal); type: cell-based, Hepatitis C virus; conditions: Hepatitis C virus, 72 h, replicon-containing cells cultured with test compound for up to 3 days
Procedure, shortened: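 IC50 values mostly reflect the drop in replicon RNA, though Fluc reporter signal may also be used. Compound incubated with cells carrying the bicistronic replicon for as long as 3 days; interferon served as positive control.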

| SMILES | melting point | pIC50 [1] |
| --- | --- | --- |
| Cc1cnc2c(c1)c(C#N)c(-c1ccc(S(=O)(=O)N[C@@H](C)C(F)(F)F)cc1)n2C(C)C [Cpd 486, 4-[3-cyano-5-methyl-1-(propan-2-yl)-1H-pyrrolo[2,3-b]pyridin-2-yl]-N-[(2S)-1,1,1-trifluoropropan-2-yl]benzenesulfonamide] | 197 to 202 °C | > 6.30 |
| Cc1cnc2c(c1)c(C#N)c(-c1ccc(S(=O)(=O)N[C@@H](C)C(F)(F)F)cc1)n2CC1CC1 [Cpd 487, 4-[3-cyano-1-(cyclopropylmethyl)-5-methyl-1H-pyrrolo[2,3-b]pyridin-2-yl]-N-[(2S)-1,1,1-trifluoropropan-2-yl]benzenesulfonamide] | 175 to 181 °C | > 6.30 |
| Cc1cnc2c(c1)c(C#N)c(-c1ccc(S(=O)(=O)N[C@@H](C)C(F)(F)F)cc1)n2CC(C)C [Cpd 488, 4-[3-cyano-5-methyl-1-(2-methylpropyl)-1H-pyrrolo[2,3-b]pyridin-2-yl]-N-[(2S)-1,1,1-trifluoropropan-2-yl]benzenesulfonamide] | 168 to 176 °C | > 6.30 |
| Cc1cnc2c(c1)c(C#N)c(-c1ccc(S(=O)(=O)N[C@@H](C)C(F)(F)F)cc1)n2CC1CCC1 [Cpd 489, 4-[3-cyano-1-(cyclobutylmethyl)-5-methyl-1H-pyrrolo[2,3-b]pyridin-2-yl]-N-[(2S)-1,1,1-trifluoropropan-2-yl]benzenesulfonamide] | 154 to 158 °C | > 6.30 |
| Cc1cnc2c(c1)c(C#N)c(-c1ccc(S(=O)(=O)N[C@@H](C)C(F)(F)F)cn1)n2C [Cpd 490, 6-(3-cyano-1,5-dimethyl-1H-pyrrolo[2,3-b]pyridin-2-yl)-N-[(2S)-1,1,1-trifluoropropan-2-yl]pyridine-3-sulfonamide] | 182 to 186 °C | 5.70 to 6.30 |
| CCn1c(-c2ccc(S(=O)(=O)N[C@@H](C)C(F)(F)F)cn2)c(C#N)c2cc(C)cnc21 [Cpd 491, 6-(3-cyano-1-ethyl-5-methyl-1H-pyrrolo[2,3-b]pyridin-2-yl)-N-[(2S)-1,1,1-trifluoropropan-2-yl]pyridine-3-sulfonamide] | 168 to 171 °C | > 6.30 |
| CCCn1c(-c2ccc(S(=O)(=O)N[C@@H](C)C(F)(F)F)cn2)c(C#N)c2cc(C)cnc21 [Cpd 492, 6-(3-cyano-5-methyl-1-propyl-1H-pyrrolo[2,3-b]pyridin-2-yl)-N-[(2S)-1,1,1-trifluoropropan-2-yl]pyridine-3-sulfonamide] | 145 to 149 °C | > 6.30 |
| Cc1cnc2c(c1)c(C#N)c(-c1ccc(S(=O)(=O)N[C@@H](C)C(F)(F)F)cn1)n2C(C)C [Cpd 493, 6-[3-cyano-5-methyl-1-(propan-2-yl)-1H-pyrrolo[2,3-b]pyridin-2-yl]-N-[(2S)-1,1,1-trifluoropropan-2-yl]pyridine-3-sulfonamide] | 157 to 162 °C | > 6.30 |
| Cc1cnc2c(c1)c(C#N)c(-c1ccc(S(=O)(=O)N[C@@H](C)C(F)(F)F)cn1)n2CC1CC1 [Cpd 494, 6-[3-cyano-1-(cyclopropylmethyl)-5-methyl-1H-pyrrolo[2,3-b]pyridin-2-yl]-N-[(2S)-1,1,1-trifluoropropan-2-yl]pyridine-3-sulfonamide] | 198 to 204 °C | > 6.30 |
| Cc1cnc2c(c1)c(C#N)c(-c1ccc(S(=O)(=O)N[C@@H](C)C(F)(F)F)cn1)n2CC(C)C [Cpd 495, 6-[3-cyano-5-methyl-1-(2-methylpropyl)-1H-pyrrolo[2,3-b]pyridin-2-yl]-N-[(2S)-1,1,1-trifluoropropan-2-yl]pyridine-3-sulfonamide] | 125 to 130 °C | > 6.30 |
| Cc1cnc2c(c1)c(C#N)c(-c1ccc(S(=O)(=O)N[C@@H](C)C(F)(F)F)cn1)n2CC1CCC1 [Cpd 496, 6-[3-cyano-1-(cyclobutylmethyl)-5-methyl-1H-pyrrolo[2,3-b]pyridin-2-yl]-N-[(2S)-1,1,1-trifluoropropan-2-yl]pyridine-3-sulfonamide] | 135 to 139 °C | > 6.30 |
| C[C@H](NS(=O)(=O)c1ccc(-c2c(C#N)c3cc(N(C)C)cnc3n2C2CCC2)nc1)C(F)(F)F [Cpd 497, 6-[3-cyano-1-cyclobutyl-5-(dimethylamino)-1H-pyrrolo[2,3-b]pyridin-2-yl]-N-[(2S)-1,1,1-trifluoropropan-2-yl]pyridine-3-sulfonamide] | 183 to 185 °C | > 6.30 |
| CN(C)c1cnc2c(c1)c(C#N)c(-c1ccc(NS(=O)(=O)C(C)(C)C)cc1)n2C1CCC1 [Cpd 498, N-{4-[3-cyano-1-cyclobutyl-5-(dimethylamino)-1H-pyrrolo[2,3-b]pyridin-2-yl]phenyl}-2-methylpropane-2-sulfonamide] | 200 to 202 °C | > 6.30 |
| CN(C)c1cnc2c(c1)c(C#N)c(-c1ccc(NS(=O)(=O)C3(C)CC3)cc1)n2C1CCC1 [Cpd 499, N-{4-[3-cyano-1-cyclobutyl-5-(dimethylamino)-1H-pyrrolo[2,3-b]pyridin-2-yl]phenyl}-1-methylcyclopropanesulfonamide] | 209 to 213 °C | > 6.30 |
| C[C@H](NS(=O)(=O)c1ccc(-c2c(C#N)c3cc(N(C)C)cnc3n2C2CCC2)cc1)C(F)(F)F [Cpd 500, 4-[3-cyano-1-cyclobutyl-5-(dimethylamino)-1H-pyrrolo[2,3-b]pyridin-2-yl]-N-[(2S)-1,1,1-trifluoropropan-2-yl]benzenesulfonamide] | 198 to 200 °C | > 6.30 |
| Cc1cnc2c(c1)c(C#N)c(-c1ccc(S(=O)(=O)N[C@@H](C)C(F)(F)F)cn1)n2-c1ccccc1F [Cpd 501, 6-[3-cyano-1-(2-fluorophenyl)-5-methyl-1H-pyrrolo[2,3-b]pyridin-2-yl]-N-[(2S)-1,1,1-trifluoropropan-2-yl]pyridine-3-sulfonamide] | 128 °C (dec.) | > 6.30 |
| Cc1cnc2c(c1)c(C#N)c(-c1ccc(S(=O)(=O)N[C@@H](C)C(F)(F)F)cn1)n2-c1cccc(F)c1 [Cpd 502, 6-[3-cyano-1-(3-fluorophenyl)-5-methyl-1H-pyrrolo[2,3-b]pyridin-2-yl]-N-[(2S)-1,1,1-trifluoropropan-2-yl]pyridine-3-sulfonamide] | 238 to 240 °C | > 6.30 |
| Cc1cnc2c(c1)c(C#N)c(-c1ccc(S(=O)(=O)N[C@@H](C)C(F)(F)F)cn1)n2-c1ccc(F)cc1 [Cpd 503, 6-[3-cyano-1-(4-fluorophenyl)-5-methyl-1H-pyrrolo[2,3-b]pyridin-2-yl]-N-[(2S)-1,1,1-trifluoropropan-2-yl]pyridine-3-sulfonamide] | 253 to 254 °C | > 6.30 |
| Cc1cnc2c(c1)c(C#N)c(-c1ccc(S(=O)(=O)N[C@@H](C)C(F)(F)F)cn1)n2-c1cc(F)ccc1F [Cpd 504, 6-[3-cyano-1-(2,5-difluorophenyl)-5-methyl-1H-pyrrolo[2,3-b]pyridin-2-yl]-N-[(2S)-1,1,1-trifluoropropan-2-yl]pyridine-3-sulfonamide] | 232 to 234 °C | > 6.30 |
| Cc1cnc2c(c1)c(C#N)c(-c1ccc(S(=O)(=O)N[C@@H](C)C(F)(F)F)cn1)n2-c1ccc(F)c(F)c1 [Cpd 505, 6-[3-cyano-1-(3,4-difluorophenyl)-5-methyl-1H-pyrrolo[2,3-b]pyridin-2-yl]-N-[(2S)-1,1,1-trifluoropropan-2-yl]pyridine-3-sulfonamide] | 250 to 252 °C | > 6.30 |
